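1) Cells in 96-well plates. 2) Compound, 48 h, 5 concentrations. 3) Linear interpolation between surrounding doses. 4) Unreached endpoint = highest concentration. The concentration for full growth arrest is given as TGI.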
Experiments:
Assay in all cases: NCI anticancer screen, dose series, 48 h
MOLT-4 leukemia = tested on: MOLT-4 leukemia
LOX IMVI melanoma = tested on: LOX IMVI melanoma
HOP-62 NSCLC = tested on: HOP-62 NSCLC
SN12C renal = tested on: SN12C renal
IGROV1 ovarian = tested on: IGROV1 ovarian
HT29 colon = tested on: HT29 colon
RPMI-8226 leukemia = tested on: RPMI-8226 leukemia
NCI-H460 lung = tested on: NCI-H460 lung
MALME-3M melanoma = tested on: MALME-3M melanoma
SF-539 CNS = tested on: SF-539 CNS
OVCAR-8 ovarian = tested on: OVCAR-8 ovarian
786-0 renal = tested on: 786-0 renal
NCI-H23 lung = tested on: NCI-H23 lung
K-562 leukemia = tested on: K-562 leukemia
HCT-116 colon = tested on: HCT-116 colon
CCRF-CEM leukemia = tested on: CCRF-CEM leukemia
OVCAR-3 ovarian = tested on: OVCAR-3 ovarian
EKVX NSCLC = tested on: EKVX NSCLC
HS 578T breast = tested on: HS 578T breast
PC-3 prostate = tested on: PC-3 prostate
BT-549 breast = tested on: BT-549 breast
A498 renal = tested on: A498 renal
HCT-15 colon = tested on: HCT-15 colon
CAKI-1 renal = tested on: CAKI-1 renal
MDA-MB-435 = tested on: MDA-MB-435
HOP-92 NSCLC = tested on: HOP-92 NSCLC
SK-MEL-5 melanoma = tested on: SK-MEL-5 melanoma
SW-620 colon = tested on: SW-620 colon
OVCAR-5 ovarian = tested on: OVCAR-5 ovarian
SF-295 CNS = tested on: SF-295 CNS
RXF 393 renal = tested on: RXF 393 renal
T-47D breast = tested on: T-47D breast
MCF7 breast = tested on: MCF7 breast
HL-60(TB) leukemia = tested on: HL-60(TB) leukemia
HCC-2998 colon = tested on: HCC-2998 colon
NCI/ADR-RES ovarian = tested on: NCI/ADR-RES ovarian
DU-145 prostate = tested on: DU-145 prostate
SR leukemia = tested on: SR leukemia
OVCAR-4 ovarian = tested on: OVCAR-4 ovarian
UACC-62 melanoma = tested on: UACC-62 melanoma
UACC-257 melanoma = tested on: UACC-257 melanoma
MDA-N = tested on: MDA-N
SK-OV-3 ovarian = tested on: SK-OV-3 ovarian
M14 melanoma = tested on: M14 melanoma
NCI-H226 lung = tested on: NCI-H226 lung
UO-31 renal = tested on: UO-31 renal
KM12 colon = tested on: KM12 colon
SNB-19 CNS = tested on: SNB-19 CNS
ACHN renal = tested on: ACHN renal
SK-MEL-28 melanoma = tested on: SK-MEL-28 melanoma
COLO 205 colon = tested on: COLO 205 colon
TK-10 renal = tested on: TK-10 renal
SNB-75 CNS = tested on: SNB-75 CNS
NCI-H522 lung = tested on: NCI-H522 lung
A549 NSCLC = tested on: A549 NSCLC
MDA-MB-231 breast = tested on: MDA-MB-231 breast
SF-268 CNS = tested on: SF-268 CNS
SK-MEL-2 melanoma = tested on: SK-MEL-2 melanoma

## COc1ccc(OC)c(C[P+](c2ccccc2)(c2ccccc2)c2ccccc2)c1
MOLT-4 leukemia
  TGI: > 35.3 µM
LOX IMVI melanoma
  TGI: 13.2 µM
HOP-62 NSCLC
  TGI: 22.2 µM
SN12C renal
  TGI: > 100 µM
IGROV1 ovarian
  TGI: 21.7 µM
HT29 colon
  TGI: 11.8 µM
RPMI-8226 leukemia
  TGI: 6.39 µM
NCI-H460 lung
  TGI: > 100 µM
MALME-3M melanoma
  TGI: 23.3 µM
SF-539 CNS
  TGI: 39.2 µM
OVCAR-8 ovarian
  TGI: > 65.3 µM
786-0 renal
  TGI: > 100 µM
NCI-H23 lung
  TGI: 11.8 µM
K-562 leukemia
  TGI: 5.91 µM
HCT-116 colon
  TGI: 14.4 µM
CCRF-CEM leukemia
  TGI: > 26.8 µM
OVCAR-3 ovarian
  TGI: > 37.3 µM
EKVX NSCLC
  TGI: > 94.6 µM
HS 578T breast
  TGI: 8.45 µM
PC-3 prostate
  TGI: 8.56 µM
BT-549 breast
  TGI: 29.1 µM
A498 renal
  TGI: 23.5 µM
HCT-15 colon
  TGI: > 100 µM
CAKI-1 renal
  TGI: 56 µM
MDA-MB-435
  TGI: 13.7 µM
HOP-92 NSCLC
  TGI: 4.39 µM
SK-MEL-5 melanoma
  TGI: 3.32 µM
SW-620 colon
  TGI: > 100 µM
OVCAR-5 ovarian
  TGI: > 100 µM
SF-295 CNS
  TGI: > 75.9 µM
RXF 393 renal
  TGI: 25.8 µM
T-47D breast
  TGI: > 90 µM
MCF7 breast
  TGI: > 40.7 µM
HL-60(TB) leukemia
  TGI: 3.29 µM
HCC-2998 colon
  TGI: 26.2 µM
NCI/ADR-RES ovarian
  TGI: > 100 µM
DU-145 prostate
  TGI: > 79.4 µM
SR leukemia
  TGI: 6.07 µM
OVCAR-4 ovarian
  TGI: > 48.8 µM
UACC-62 melanoma
  TGI: 12.8 µM
UACC-257 melanoma
  TGI: 14.4 µM
MDA-N
  TGI: 29.8 µM
SK-OV-3 ovarian
  TGI: 11 µM
M14 melanoma
  TGI: 18.3 µM
NCI-H226 lung
  TGI: > 61.4 µM
UO-31 renal
  TGI: 79.4 µM
KM12 colon
  TGI: 14.1 µM
SNB-19 CNS
  TGI: > 75 µM
ACHN renal
  TGI: > 64.2 µM
SK-MEL-28 melanoma
  TGI: 18.8 µM
COLO 205 colon
  TGI: 2.76 µM
TK-10 renal
  TGI: > 92.6 µM
SNB-75 CNS
  TGI: 22.2 µM
NCI-H522 lung
  TGI: > 39.4 µM
A549 NSCLC
  TGI: > 56.4 µM
MDA-MB-231 breast
  TGI: 34.9 µM
SF-268 CNS
  TGI: > 100 µM

## COc1cccc(NC(=O)CC(=O)N2N=C(C)C(N=Nc3ccc(C(=O)O)cc3)C2=O)c1 (centres undefined)
LOX IMVI melanoma
  TGI: > 100 µM
HOP-62 NSCLC
  TGI: > 100 µM
SN12C renal
  TGI: > 100 µM
IGROV1 ovarian
  TGI: > 100 µM
HT29 colon
  TGI: > 100 µM
RPMI-8226 leukemia
  TGI: > 100 µM
MALME-3M melanoma
  TGI: > 100 µM
SF-539 CNS
  TGI: > 100 µM
OVCAR-8 ovarian
  TGI: > 100 µM
786-0 renal
  TGI: > 100 µM
NCI-H23 lung
  TGI: > 100 µM
K-562 leukemia
  TGI: > 100 µM
HCT-116 colon
  TGI: > 100 µM
CCRF-CEM leukemia
  TGI: > 100 µM
OVCAR-3 ovarian
  TGI: > 100 µM
EKVX NSCLC
  TGI: > 100 µM
HS 578T breast
  TGI: > 100 µM
PC-3 prostate
  TGI: > 100 µM
BT-549 breast
  TGI: > 100 µM
HCT-15 colon
  TGI: > 100 µM
CAKI-1 renal
  TGI: > 100 µM
SK-MEL-2 melanoma
  TGI: > 100 µM
MDA-MB-435
  TGI: > 100 µM
SK-MEL-5 melanoma
  TGI: > 100 µM
SW-620 colon
  TGI: > 100 µM
OVCAR-5 ovarian
  TGI: > 100 µM
SF-295 CNS
  TGI: > 100 µM
RXF 393 renal
  TGI: > 100 µM
T-47D breast
  TGI: > 100 µM
MCF7 breast
  TGI: > 100 µM
HL-60(TB) leukemia
  TGI: > 100 µM
HCC-2998 colon
  TGI: > 100 µM
NCI/ADR-RES ovarian
  TGI: > 100 µM
DU-145 prostate
  TGI: > 100 µM
SR leukemia
  TGI: > 100 µM
OVCAR-4 ovarian
  TGI: > 100 µM
UACC-62 melanoma
  TGI: > 100 µM
UACC-257 melanoma
  TGI: > 100 µM
MDA-N
  TGI: > 100 µM
M14 melanoma
  TGI: > 100 µM
UO-31 renal
  TGI: > 100 µM
KM12 colon
  TGI: > 100 µM
SNB-19 CNS
  TGI: > 100 µM
ACHN renal
  TGI: > 100 µM
SK-MEL-28 melanoma
  TGI: > 100 µM
COLO 205 colon
  TGI: > 100 µM
TK-10 renal
  TGI: > 100 µM
SNB-75 CNS
  TGI: 45.1 µM
NCI-H522 lung
  TGI: > 100 µM
A549 NSCLC
  TGI: > 100 µM
MDA-MB-231 breast
  TGI: > 100 µM
SF-268 CNS
  TGI: > 100 µM

Source: PubChem BioAssay (NCI)
